US7759101B2, “Ginsenoside glycosidases hydrolyzing ginsenoside sugar moieties and uses thereof” (priority 2000, dated 2010)

Experiments:
[1] = system: ginsenoside glycosidase III; assay: Hydrolysis of ginsenoside Rd with ginsenoside glycosidase III (Fraction 18); assay type: biochemical, Aspergillus niger; conditions: substrate 0.5%, pH 5.0, 30° C., 18 hours
Procedure: Ginsenoside glycosidase II was purified from the crude enzyme solution obtained in 1.1 by HPLC. Separation column: Bio-Scale Q (BioRad), 2 ml/tube. 1 ml of the crude enzyme solution was loaded on the column, and eluted with solvent A (25 mM Tris-HCl buffer pH 7.4) and solvent B (0.5M NaCl in 20 mM Tris-HCl buffer pH 7.4). Fraction 18 appeared as a single dot when running on a SDS-polyacrylamide gel and thus represented a purified enzyme. The enzyme was designated as ginsenoside glycosidase III. This enzyme can hydrolyze the diglucosyl groups at C-3 of aglycone, converting Rd and Rg3 to C-K and aglycone.
To observe the differences between the ginsenoside glycosidases of the invention and known exo-cellulases, the ginsenoside glycosidases of the invention were compared with cellulose β-glucosidase (E.C. 3.2.1.21) in two reactions with 0.5% ginsenosides Rb1 or Rd as substrate.

[2] = system: Ginsenoside Glycosidases from Yeast; assay: Hydrolysis of Rd with ginsenoside glycosidases from yeast; assay type: biochemical, Candida sp. FFCCDL-2 g; conditions: 0.5% Rd in acetate buffer, 60° C., 12 hours
Procedure: Candida sp. FFCCDL-2 g (available from Food Fermentation Culture Collection of Dalian Institute of Light Industry) was cultured with shaking at 30° C. for 56 hours in a medium containing 2% by weight of ginseng extracts and 8% by weight of malt extracts. Cells were removed by centrifugation, after which (NH4)2SO4 powder was added to 500 ml of the cell-free supernatant to 65% saturation. The solution was dialyzed against 0.01M acetate buffer pH 5. Insolubles were removed by centrifugation, and 25 ml of crude enzyme solution was obtained.
10 ml of the enzyme solution was allowed to react with 10 ml of 0.5% Rd in acetate buffer at 60° C. for 12 hours. […] The enzymes can also hydrolyze β-(1→2)-glucoside of Rg3 to give Rh2.

[3] = system: ginsenoside glycosidases from Streptomyces; assay: Hydrolysis of Rd with ginsenoside glycosidases from Streptomyces; assay type: biochemical, Streptomyces sp. FFCCDL-2 g; conditions: 1% Rd in acetate buffer containing 20% ethanol, 50° C., 20 hours
Procedure: Streptomyces sp. FFCCDL-2 g (available from Food Fermentation Culture Collection of Dalian Institute of Light Industry) was cultured at 30° C. for 48 hours in a medium containing 1% by weight of ginseng extracts and 3% by weight of wheat bran extracts. Cells were removed by centrifugation, after which (NH4)2SO4 powder was added to 300 ml of the cell-free supernatant to 70% saturation to precipitate the enzymes. The solution was stored at 4° C. overnight and centrifuged to collect the pellets. The pellets were resuspended and the suspension was dialyzed against 0.01M acetate buffer pH 5. Impurities were removed by centrifugation, and 15 ml of crude enzyme solution was obtained.
10 ml of the enzyme solution was allowed to react with 10 ml of 1% Rd in acetate buffer containing 20% ethanol at 50° C. for 20 hours.

[4] = system: Enzymes from Malts; assay: Hydrolysis of Rb1 with enzymes from malts; assay type: biochemical, malt; conditions: 1% Rb1 solution, pH 5, 20% ethanol, 40° C., 20 hours
Procedure: 200 g of malt was ground and added to 1000 ml of 0.01 M acetate buffer pH 5 for extraction under room temperature for two hours. The mixture was filtrated. To the supernatant 3 volumes of ethanol was added and stand overnight. Precipitates were collected to which 50 ml of 0.01 M acetate buffer pH 5 was added. Insolubles were removed and enzyme solution was obtained. 10 ml of the enzyme solution was allowed to react with 10 ml of 1% Rb1 solution (in 0.01 M acetate buffer pH 5 containing 20% ethanol) at 40° C. for 20 hours. The product was detected by TLC. As a result, more than 95% Rb1 was converted to Rd, F2, C-K and Rg3 and the like.

For CC(C)=CCC[C@](C)(O[C@@H]1O[C@H](CO)[C@@H](O)[C@H](O)[C@H]1O)[C@H]1CC[C@]2(C)[C@@H]1[C@H](O)C[C@@H]1[C@@]3(C)CC[C@H](O[C@@H]4O[C@H](CO)[C@@H](O)[C@H](O)[C@H]4O[C@@H]4O[C@H](CO)[C@@H](O)[C@H](O)[C@H]4O)C(C)(C)[C@@H]3CC[C@]12C [Rd, ginsenoside Rd], the “Percentage of C—K in the reaction product” value [1] was 36%, the “Percentage of Rd in the reaction product” value [1] was 61% and the “Percentage of aglycone in the reaction product” value [1] was 3%. The “Rd converted to ginsenoside F2” value [2] was 73% and the “Rd converted to ginsenoside F2” value [3] was 50%.
In the case of CC(C)=CCC[C@](C)(O[C@@H]1O[C@H](CO[C@@H]2O[C@H](CO)[C@@H](O)[C@H](O)[C@H]2O)[C@@H](O)[C@H](O)[C@H]1O)[C@H]1CC[C@]2(C)[C@@H]1[C@H](O)C[C@@H]1[C@@]3(C)CC[C@H](O[C@@H]4O[C@H](CO)[C@@H](O)[C@H](O)[C@H]4O[C@@H]4O[C@H](CO)[C@@H](O)[C@H](O)[C@H]4O)C(C)(C)[C@@H]3CC[C@]12C [Rb1, ginsenoside Rb1], the “Rb1 converted to Rd, F2, C-K and Rg3 and the like” value [4] is reported as “more than 95%”.
